Here are results for eight cell lines from the supplement of paper PMC10307832.

Common to all, as to assay: relative viability (nuclei count vs DMSO), 5 days (fraction); higher = more cells survive
Compound in the assay “YM155 + Alpelisib”: COCC[n+]1c2c(n(Cc3cnccn3)c1C)C(=O)c1ccccc1C2=O [YM155] + Cc1nc(NC(=O)N2CCC[C@H]2C(N)=O)sc1-c1ccnc(C(C)(C)C(F)(F)F)c1 [Alpelisib] (partner 2 µM)
The method, boiled down: (§1)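 Relative viability equals treated-well nuclei counts divided by vehicle-well nuclei counts. Counts came from 4× images of lung cancer cell lines grown in 1536-well plates for 5 days after pin-tool dosing on the day after seeding. Dosing used one drug alone or a fixed anchor-drug dose plus five library-drug doses (not always all listed) in √10 steps, and values are medians of duplicate plates.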

Compound in the assay “YM155 + Lapatinib”: COCC[n+]1c2c(n(Cc3cnccn3)c1C)C(=O)c1ccccc1C2=O [YM155] + CS(=O)(=O)CCNCc1ccc(-c2ccc3ncnc(Nc4ccc(OCc5cccc(F)c5)c(Cl)c4)c3c2)o1 [Lapatinib] (partner 2 µM)
The method, boiled down: as §1

Compound in the assay “Quizartinib + Vorinostat”: CC(C)(C)c1cc(NC(=O)Nc2ccc(-c3cn4c(n3)sc3cc(OCCN5CCOCC5)ccc34)cc2)no1 [Quizartinib] + O=C(CCCCCCC(=O)Nc1ccccc1)NO [Vorinostat] (partner 1 µM)
The method, boiled down: as §1

Compound in the assay “Quizartinib + Decitabine”: CC(C)(C)c1cc(NC(=O)Nc2ccc(-c3cn4c(n3)sc3cc(OCCN5CCOCC5)ccc34)cc2)no1 [Quizartinib] + Nc1ncn([C@H]2C[C@H](O)[C@@H](CO)O2)c(=O)n1 [Decitabine] (partner 2 µM)
Summed up: as §1

Take NCI-H1299: the relative viability in the assay with YM155 + Alpelisib (first compound 0.002 µM) worked out at 0.993; with YM155 + Alpelisib (first compound 0.006325 µM), 1.01; with YM155 + Alpelisib (first compound 0.02 µM), 1.05; with YM155 + Alpelisib (first compound 0.06325 µM), 1.07; in the assay with YM155 + Lapatinib (first compound 0.002 µM), 0.949; with YM155 + Lapatinib (first compound 0.006325 µM), 0.962. Further, the figures for the relative viability in the assay with YM155 + Lapatinib (first compound 0.02 µM) and with YM155 + Lapatinib (first compound 0.06325 µM) were 0.908 and 0.176, respectively.
Consider NCI-H1563, for which the relative viability with YM155 + Alpelisib (first compound 0.002 µM) turned out to be 0.916; with YM155 + Alpelisib (first compound 0.006325 µM) it was 0.977; with YM155 + Alpelisib (first compound 0.02 µM) it was 0.895; with YM155 + Alpelisib (first compound 0.06325 µM), 0.902; with YM155 + Lapatinib (first compound 0.002 µM), 0.924; with YM155 + Lapatinib (first compound 0.006325 µM), 0.994. Moreover, the relative viability with YM155 + Lapatinib (first compound 0.02 µM) was 0.986; with YM155 + Lapatinib (first compound 0.06325 µM), 1.05.
Regarding NCI-H1650, the relative viability is 0.499 in the assay with Quizartinib + Vorinostat (first compound 0.001 µM); 0.581 in the assay with Quizartinib + Vorinostat (first compound 0.003162 µM); 0.635 with Quizartinib + Vorinostat (first compound 0.01 µM); 0.445 in the assay with Quizartinib + Vorinostat (first compound 0.1 µM); 0.345 in the assay with Quizartinib + Decitabine (first compound 0.001 µM); 0.364 with Quizartinib + Decitabine (first compound 0.003162 µM). Also, the relative viability worked out at 0.458 in the assay with Quizartinib + Decitabine (first compound 0.01 µM); 0.393 in the assay with Quizartinib + Decitabine (first compound 0.1 µM); 0.674 with YM155 + Lapatinib (first compound 0.002 µM); 0.787 with YM155 + Lapatinib (first compound 0.006325 µM); 0.988 with YM155 + Lapatinib (first compound 0.02 µM); 0.488 with YM155 + Lapatinib (first compound 0.06325 µM).
For NCI-H1703, the relative viability with YM155 + Alpelisib (first compound 0.002 µM) stood at 0.292; with YM155 + Alpelisib (first compound 0.006325 µM), 0.394; with YM155 + Alpelisib (first compound 0.02 µM), 0.373; with YM155 + Alpelisib (first compound 0.06325 µM), 0.339; in the assay with YM155 + Lapatinib (first compound 0.002 µM) it was 1.11; with YM155 + Lapatinib (first compound 0.006325 µM), 0.982. The relative viability in the assay with YM155 + Lapatinib (first compound 0.02 µM) was determined as 0.452; with YM155 + Lapatinib (first compound 0.06325 µM), 0.179.
Consider NCI-H1792, for which the relative viability in the assay with Quizartinib + Decitabine (first compound 0.001 µM) was 0.459; in the assay with Quizartinib + Decitabine (first compound 0.003162 µM), 0.502; with Quizartinib + Decitabine (first compound 0.01 µM), 0.598; in the assay with Quizartinib + Decitabine (first compound 0.03162 µM) it was 0.449; with Quizartinib + Decitabine (first compound 0.1 µM), 0.577; in the assay with YM155 + Alpelisib (first compound 0.002 µM) it was 0.67. The relative viability was 0.73 in the assay with YM155 + Alpelisib (first compound 0.006325 µM); 0.703 with YM155 + Alpelisib (first compound 0.02 µM); 0.759 with YM155 + Alpelisib (first compound 0.06325 µM); 0.95 with YM155 + Lapatinib (first compound 0.002 µM); 0.92 in the assay with YM155 + Lapatinib (first compound 0.006325 µM); 0.943 with YM155 + Lapatinib (first compound 0.02 µM). The relative viability in the assay with YM155 + Lapatinib (first compound 0.06325 µM) came to 0.895.
On to NCI-H2228, for which the relative viability with Quizartinib + Vorinostat (first compound 0.001 µM) came out at 0.51; with Quizartinib + Vorinostat (first compound 0.003162 µM), 0.565; in the assay with Quizartinib + Vorinostat (first compound 0.01 µM), 0.844; with Quizartinib + Vorinostat (first compound 0.03162 µM), 0.535; in the assay with Quizartinib + Vorinostat (first compound 0.1 µM) it was 0.629; with YM155 + Alpelisib (first compound 0.002 µM) it was 0.764. The relative viability was found to be 0.782 with YM155 + Alpelisib (first compound 0.006325 µM); 0.645 in the assay with YM155 + Alpelisib (first compound 0.02 µM); 0.657 with YM155 + Alpelisib (first compound 0.06325 µM); 0.856 with YM155 + Lapatinib (first compound 0.002 µM); 1.16 with YM155 + Lapatinib (first compound 0.006325 µM); 0.988 with YM155 + Lapatinib (first compound 0.02 µM). Besides, the relative viability with YM155 + Lapatinib (first compound 0.06325 µM) was determined as 0.998.
As for NCI-H2342, the relative viability with Quizartinib + Vorinostat (first compound 0.001 µM) worked out at 0.804; in the assay with Quizartinib + Vorinostat (first compound 0.003162 µM), 0.717; with Quizartinib + Vorinostat (first compound 0.01 µM) it was 0.669; with Quizartinib + Vorinostat (first compound 0.03162 µM), 0.69; with Quizartinib + Vorinostat (first compound 0.1 µM) it was 0.617; with Quizartinib + Decitabine (first compound 0.001 µM) it was 0.749. Further, the relative viability with Quizartinib + Decitabine (first compound 0.003162 µM) stood at 0.763; in the assay with Quizartinib + Decitabine (first compound 0.01 µM), 0.678; in the assay with Quizartinib + Decitabine (first compound 0.03162 µM), 0.729; with Quizartinib + Decitabine (first compound 0.1 µM) it was 0.724.
Regarding SW 900, the relative viability came to 0.402 in the assay with Quizartinib + Vorinostat (first compound 0.001 µM); 0.561 in the assay with Quizartinib + Vorinostat (first compound 0.003162 µM); 0.373 with Quizartinib + Vorinostat (first compound 0.01 µM); 0.608 with Quizartinib + Vorinostat (first compound 0.03162 µM); 0.583 with Quizartinib + Vorinostat (first compound 0.1 µM); 0.42 in the assay with Quizartinib + Decitabine (first compound 0.001 µM). Moreover, the relative viability with Quizartinib + Decitabine (first compound 0.003162 µM) is 0.392; in the assay with Quizartinib + Decitabine (first compound 0.01 µM), 0.422; with Quizartinib + Decitabine (first compound 0.03162 µM), 0.372; in the assay with Quizartinib + Decitabine (first compound 0.1 µM), 0.336.
